Experimental data published in ChEMBL document CHEMBL3885881, “DrugMatrix”.

Species on record: Rattus norvegicus
Assay: DrugMatrix - Regimen: Daily Repeat
Type: toxicity, organism-based, Sprague-Dawley
Parameters: regimen Daily Repeat, gender Male, age 6-8 weeks
Conditions: in vivo, po, route oral GAVAGE, vehicle .5 % CMC; for ABSOLUTE BASOPHIL / ABSOLUTE EOSINOPHIL / ABSOLUTE LYMPHOCYTE / ABSOLUTE MONOCYTE / ABSOLUTE SEGMENTED NEUTROPHIL / BASOPHIL / EOSINOPHIL / ERYTHROCYTE COUNT / HEMATOCRIT / HEMOGLOBIN / LEUKOCYTE COUNT / LYMPHOCYTE / MEAN CORPUSCULAR HEMOGLOBIN / MEAN CORPUSCULAR HEMOGLOBIN CONCENTRATION / MEAN CORPUSCULAR VOLUME / MONOCYTE / NEUTROPHIL / NUCLEATED RED BLOOD CELLS / PLATELET COUNT: tissue Blood; for ALANINE AMINOTRANSFERASE / ALBUMIN / ALKALINE PHOSPHATASE / ASPARTATE AMINOTRANSFERASE / BLOOD UREA NITROGEN / CARBON DIOXIDE / CHLORIDE / CHOLESTEROL / CREATINE PHOSPHOKINASE / CREATININE / GLUCOSE / LACTATE DEHYDROGENASE / LIPASE / PHOSPHORUS / POTASSIUM / SODIUM / TOTAL BILIRUBIN / TOTAL PROTEIN / URIC ACID: tissue Plasma
[1] = 15 mg/kg, 120 h, dose level Low, time 5 day
[2] = 710 mg/kg, 72 h, dose level High, time 3 day
[3] = 710 mg/kg, 120 h, dose level High, time 5 day

CN1C(=O)CN=C(c2ccccc2)c2cc(Cl)ccc21 [DIAZEPAM]
ABSOLUTE BASOPHIL [1]: 0 CELLS/uL
ABSOLUTE EOSINOPHIL [1]: 72 CELLS/uL
ABSOLUTE LYMPHOCYTE [1]: 10533.67 CELLS/uL
ABSOLUTE MONOCYTE [1]: 40.33 CELLS/uL
ABSOLUTE SEGMENTED NEUTROPHIL [1]: 587.33 CELLS/uL
BASOPHIL [1]: 0%
EOSINOPHIL [1]: 0.67%
ERYTHROCYTE COUNT [1]: 5.7 x10E6/uL
HEMATOCRIT [1]: 36.2%
HEMOGLOBIN [1]: 14.23 G/DL
LEUKOCYTE COUNT [1]: 11.23 x10E3/uL
LYMPHOCYTE [1]: 93.67%
MEAN CORPUSCULAR HEMOGLOBIN [1]: 25.07 pg
MEAN CORPUSCULAR HEMOGLOBIN CONCENTRATION [1]: 39.37 G/DL
MEAN CORPUSCULAR VOLUME [1]: 63.67 fL
MONOCYTE [1]: 0.33%
NEUTROPHIL [1]: 5.33%
NUCLEATED RED BLOOD CELLS [1]: 0 /100WBC
PLATELET COUNT [1]: 1134.33 x10E3/uL
ALANINE AMINOTRANSFERASE [1]: 51.33 u/L
ALBUMIN [1]: 4.17 G/DL
ALKALINE PHOSPHATASE [1]: 404.33 u/L
ASPARTATE AMINOTRANSFERASE [1]: 80.33 u/L
BLOOD UREA NITROGEN [1]: 16.33 mg/dL
CARBON DIOXIDE [1]: 27.67 mmol/L
CHLORIDE [1]: 101.67 MEQ/L
CHOLESTEROL [1]: 58.67 mg/dL
CREATINE PHOSPHOKINASE [1]: 231 u/L
CREATININE [1]: 0.18 mg/dL
GLUCOSE [1]: 147.67 mg/dL
LACTATE DEHYDROGENASE [1]: 117.67 u/L
LIPASE [1]: 9 u/L
PHOSPHORUS [1]: 12.13 mg/dL
POTASSIUM [1]: 7.09 MEQ/L
SODIUM [1]: 143.97 MEQ/L
TOTAL BILIRUBIN [1]: 0.23 mg/dL
TOTAL PROTEIN [1]: 5.93 G/DL
URIC ACID [1]: 1.43 mg/dL
ABSOLUTE BASOPHIL [2]: 0 CELLS/uL
ABSOLUTE EOSINOPHIL [2]: 125.67 CELLS/uL
ABSOLUTE LYMPHOCYTE [2]: 9703.33 CELLS/uL
ABSOLUTE MONOCYTE [2]: 42.33 CELLS/uL
ABSOLUTE SEGMENTED NEUTROPHIL [2]: 1128.67 CELLS/uL
BASOPHIL [2]: 0%
EOSINOPHIL [2]: 1%
ERYTHROCYTE COUNT [2]: 5.78 x10E6/uL
HEMATOCRIT [2]: 35.37%
HEMOGLOBIN [2]: 13.83 G/DL
LEUKOCYTE COUNT [2]: 11 x10E3/uL
LYMPHOCYTE [2]: 88.33%
MEAN CORPUSCULAR HEMOGLOBIN [2]: 23.93 pg
MEAN CORPUSCULAR HEMOGLOBIN CONCENTRATION [2]: 39.1 G/DL
MEAN CORPUSCULAR VOLUME [2]: 61.17 fL
MONOCYTE [2]: 0.33%
NEUTROPHIL [2]: 10.33%
NUCLEATED RED BLOOD CELLS [2]: 0 /100WBC
PLATELET COUNT [2]: 1330.67 x10E3/uL
ALANINE AMINOTRANSFERASE [2]: 69.67 u/L
ALBUMIN [2]: 4.07 G/DL
ALKALINE PHOSPHATASE [2]: 240 u/L
ASPARTATE AMINOTRANSFERASE [2]: 86.67 u/L
BLOOD UREA NITROGEN [2]: 14 mg/dL
CARBON DIOXIDE [2]: 33.33 mmol/L
CHLORIDE [2]: 101.33 MEQ/L
CHOLESTEROL [2]: 106.33 mg/dL
CREATINE PHOSPHOKINASE [2]: 222 u/L
CREATININE [2]: 0.21 mg/dL
GLUCOSE [2]: 159 mg/dL
LACTATE DEHYDROGENASE [2]: 204.67 u/L
LIPASE [2]: 10.67 u/L
PHOSPHORUS [2]: 12.7 mg/dL
POTASSIUM [2]: 6.45 MEQ/L
SODIUM [2]: 143.1 MEQ/L
TOTAL BILIRUBIN [2]: 0.2 mg/dL
TOTAL PROTEIN [2]: 5.53 G/DL
URIC ACID [2]: 1.27 mg/dL
ABSOLUTE BASOPHIL [3]: 0 CELLS/uL
ABSOLUTE EOSINOPHIL [3]: 31.67 CELLS/uL
ABSOLUTE LYMPHOCYTE [3]: 10193.33 CELLS/uL
ABSOLUTE MONOCYTE [3]: 269 CELLS/uL
ABSOLUTE SEGMENTED NEUTROPHIL [3]: 1672.67 CELLS/uL
BASOPHIL [3]: 0%
EOSINOPHIL [3]: 0.33%
ERYTHROCYTE COUNT [3]: 5.59 x10E6/uL
HEMATOCRIT [3]: 34.87%
HEMOGLOBIN [3]: 13.8 G/DL
LEUKOCYTE COUNT [3]: 12.17 x10E3/uL
LYMPHOCYTE [3]: 84%
MEAN CORPUSCULAR HEMOGLOBIN [3]: 24.77 pg
MEAN CORPUSCULAR HEMOGLOBIN CONCENTRATION [3]: 39.6 G/DL
MEAN CORPUSCULAR VOLUME [3]: 62.47 fL
MONOCYTE [3]: 2.33%
NEUTROPHIL [3]: 13.33%
NUCLEATED RED BLOOD CELLS [3]: 0 /100WBC
PLATELET COUNT [3]: 1299.67 x10E3/uL
ALANINE AMINOTRANSFERASE [3]: 81.67 u/L
ALBUMIN [3]: 3.93 G/DL
ALKALINE PHOSPHATASE [3]: 319.33 u/L
ASPARTATE AMINOTRANSFERASE [3]: 104.67 u/L
BLOOD UREA NITROGEN [3]: 13.67 mg/dL
CARBON DIOXIDE [3]: 25.33 mmol/L
CHLORIDE [3]: 101 MEQ/L
CHOLESTEROL [3]: 119.67 mg/dL
CREATINE PHOSPHOKINASE [3]: 535.33 u/L
CREATININE [3]: 0.16 mg/dL
GLUCOSE [3]: 133.33 mg/dL
LACTATE DEHYDROGENASE [3]: 507 u/L
LIPASE [3]: 11.33 u/L
PHOSPHORUS [3]: 11.5 mg/dL
POTASSIUM [3]: 5.38 MEQ/L
SODIUM [3]: 142.53 MEQ/L
TOTAL BILIRUBIN [3]: 0.13 mg/dL
TOTAL PROTEIN [3]: 5.7 G/DL
URIC ACID [3]: 1.23 mg/dL
